# Test results reported in ChEMBL document CHEMBL1212747, “In vitro activity of thimerosal against ocular pathogenic fungi” (2010).
# Legend:
# Format in all cases: functional
# Fusarium sp. = assay: Antifungal activity against Fusarium sp. clinical isolates after 48 hrs by broth microdilution method
# Fusarium solani = assay: Antifungal activity against Fusarium solani species complex clinical isolates after 48 hrs by broth microdilution method
# Aspergillus oryzae = assay: Antifungal activity against Aspergillus oryzae species complex clinical isolates after 48 hrs by broth microdilution method
# Aspergillus fumigatus = assay: Antifungal activity against Aspergillus fumigatus species complex clinical isolates after 48 hrs by broth microdilution method
# Fusarium avenaceum = assay: Antifungal activity against Fusarium avenaceum species complex clinical isolates after 48 hrs by broth microdilution method
# Aspergillus candidus = assay: Antifungal activity against Aspergillus candidus clinical isolates after 48 hrs by broth microdilution method
# Aspergillus sp. = assay: Antifungal activity against Aspergillus sp. clinical isolates after 48 hrs by broth microdilution method
# Aspergillus versicolor = assay: Antifungal activity against Aspergillus versicolor species complex clinical isolates after 48 hrs by broth microdilution method
# Aspergillus niger = assay: Antifungal activity against Aspergillus niger clinical isolates after 48 hrs by broth microdilution method
# Aspergillus ochraceus = assay: Antifungal activity against Aspergillus ochraceus clinical isolates after 48 hrs by broth microdilution method
# Alternaria alternata = assay: Antifungal activity against Alternaria alternata clinical isolates after 48 hrs by broth microdilution method
# Fusarium verticillioides = assay: Antifungal activity against Fusarium moniliforme species complex clinical isolates after 48 hrs by broth microdilution method
# Aspergillus wentii = assay: Antifungal activity against Aspergillus wentii clinical isolates after 48 hrs by broth microdilution method
# Fusarium oxysporum = assay: Antifungal activity against Fusarium oxysporum clinical isolates after 48 hrs by broth microdilution method
# Aspergillus nidulans = assay: Antifungal activity against Aspergillus nidulans clinical isolates after 48 hrs by broth microdilution method
# [1] = Antifungal activity against Fusarium poae clinical isolates after 48 hrs by broth microdilution method
# [2] = Antifungal activity against Fusarium lateritium clinical isolates after 48 hrs by broth microdilution method
# Aspergillus flavus = assay: Antifungal activity against Aspergillus flavus species complex clinical isolates after 48 hrs by broth microdilution method
# [3] = Fusarium sp., 48 h, read-out: MIC90
molecule,measurement,setting,value
C[C@@H](c1ncncc1F)[C@](O)(Cn1cncn1)c1ccc(F)cc1F [VORICONAZOLE],MIC90,Fusarium sp.; [3],2 µg/mL
CC(=O)N1CCN(c2ccc(OCC3COC(Cn4ccnc4)(c4ccc(Cl)cc4Cl)O3)cc2)CC1 (stereo not given) [KETOCONAZOLE],MIC90,Fusarium sp.; [3],> 16 µg/mL
Nc1nc(=O)[nH]cc1F [FLUCYTOSINE],MIC90,Fusarium sp.; [3],> 64 µg/mL
CC[C@@H]([C@H](C)O)n1ncn(-c2ccc(N3CCN(c4ccc(OC[C@@H]5CO[C@@](Cn6cncn6)(c6ccc(F)cc6F)C5)cc4)CC3)cc2)c1=O [POSACONAZOLE],MIC90,Fusarium sp.; [3],> 8 µg/mL
THIMEROSAL,MIC50,Fusarium solani,0.0156 µg/mL
same,MIC90,Fusarium solani,0.0313 µg/mL
same,MIC50,Aspergillus oryzae,0.0625 µg/mL
same,MIC90,Aspergillus oryzae,0.0625 µg/mL
same,MIC50,Aspergillus fumigatus,0.0313 µg/mL
same,MIC90,Aspergillus fumigatus,0.0625 µg/mL
same,MIC50,Fusarium sp.,0.0156 µg/mL
same,MIC90,Fusarium sp.,0.0313 µg/mL
same,MIC50,Fusarium avenaceum,0.0156 µg/mL
same,MIC90,Fusarium avenaceum,0.0313 µg/mL
same,MIC50,Aspergillus candidus,0.0156 µg/mL
same,MIC90,Aspergillus candidus,0.0313 µg/mL
same,MIC50,Aspergillus sp.,0.0625 µg/mL
same,MIC90,Aspergillus sp.,0.0625 µg/mL
same,MIC50,Aspergillus versicolor,0.0156 µg/mL
same,MIC90,Aspergillus versicolor,0.0625 µg/mL
same,MIC50,Aspergillus niger,0.0156 µg/mL
same,MIC90,Aspergillus niger,0.0313 µg/mL
same,MIC50,Aspergillus ochraceus,0.0156 µg/mL
same,MIC90,Aspergillus ochraceus,0.0313 µg/mL
same,MIC50,Alternaria alternata,0.0156 µg/mL
same,MIC90,Alternaria alternata,0.0313 µg/mL
same,MIC50,Fusarium verticillioides,0.0156 µg/mL
same,MIC90,Fusarium verticillioides,0.0313 µg/mL
same,MIC50,Aspergillus wentii,0.0156 µg/mL
same,MIC90,Aspergillus wentii,0.0313 µg/mL
same,MIC50,Fusarium oxysporum,0.0156 µg/mL
same,MIC90,Fusarium oxysporum,0.0313 µg/mL
same,MIC50,Aspergillus nidulans,0.0156 µg/mL
same,MIC90,Aspergillus nidulans,0.0313 µg/mL
same,MIC50,[1],0.0156 µg/mL
same,MIC90,[1],0.0313 µg/mL
same,MIC50,[2],0.0156 µg/mL
same,MIC90,[2],0.0313 µg/mL
same,MIC50,Aspergillus flavus,0.0625 µg/mL
same,MIC90,Aspergillus flavus,0.0625 µg/mL
CC[C@H](C)C[C@H](C)CCCCCCCCC(=O)N[C@H]1C[C@@H](O)[C@@H](NCCN)NC(=O)[C@@H]2[C@@H](O)CCN2C(=O)[C@H]([C@H](O)CCN)NC(=O)[C@H]([C@H](O)[C@@H](O)c2ccc(O)cc2)NC(=O)[C@@H]2C[C@@H](O)CN2C(=O)[C@H]([C@@H](C)O)NC1=O [CASPOFUNGIN],MIC90,Fusarium sp.; [3],> 16 µg/mL
C[C@@H]1[C@H](O)[C@@H](C)/C=C/C=C/C=C/C=C/C=C/C=C/C=C/[C@H](O[C@@H]2O[C@H](C)[C@@H](O)[C@H](N)[C@@H]2O)C[C@@H]2O[C@](O)(C[C@@H](O)C[C@@H](O)[C@H](O)CC[C@@H](O)C[C@@H](O)CC(=O)O[C@H]1C)C[C@H](O)[C@H]2C(=O)O [AMPHOTERICIN B],MIC,Fusarium solani,1 µg/mL
same,MIC50,Fusarium solani,1 µg/mL
same,MIC90,Fusarium solani,2 µg/mL
same,MIC,Aspergillus oryzae,1 µg/mL
same,MIC50,Aspergillus oryzae,1 µg/mL
same,MIC90,Aspergillus oryzae,2 µg/mL
same,MIC,Aspergillus fumigatus,1 µg/mL
same,MIC50,Aspergillus fumigatus,1 µg/mL
same,MIC90,Aspergillus fumigatus,2 µg/mL
same,MIC90,Fusarium sp.,2 µg/mL
same,MIC,"Fusarium sp.; Fusarium sp., 48 h",1 µg/mL
same,MIC50,"Fusarium sp.; Fusarium sp., 48 h",1 µg/mL
same,MIC90,Fusarium sp.; [3],2 µg/mL
same,MIC,Fusarium avenaceum,2 µg/mL
same,MIC50,Fusarium avenaceum,2 µg/mL
same,MIC90,Fusarium avenaceum,4 µg/mL
same,MIC,Aspergillus candidus,1 µg/mL
same,MIC50,Aspergillus candidus,1 µg/mL
same,MIC90,Aspergillus candidus,2 µg/mL
same,MIC,Aspergillus sp.,1 µg/mL
same,MIC50,Aspergillus sp.,1 µg/mL
same,MIC90,Aspergillus sp.,2 µg/mL
same,MIC,Aspergillus versicolor,1 µg/mL
same,MIC50,Aspergillus versicolor,1 µg/mL
same,MIC90,Aspergillus versicolor,2 µg/mL
same,MIC,Aspergillus niger,1 µg/mL
same,MIC50,Aspergillus niger,1 µg/mL
same,MIC90,Aspergillus niger,2 µg/mL
same,MIC,Aspergillus ochraceus,1 µg/mL
same,MIC50,Aspergillus ochraceus,1 µg/mL
same,MIC90,Aspergillus ochraceus,2 µg/mL
same,MIC,Alternaria alternata,0.125 µg/mL
same,MIC50,Alternaria alternata,0.125 µg/mL
same,MIC90,Alternaria alternata,0.125 µg/mL
same,MIC,Fusarium verticillioides,2 µg/mL
same,MIC50,Fusarium verticillioides,2 µg/mL
same,MIC90,Fusarium verticillioides,2 µg/mL
same,MIC,Aspergillus wentii,1 µg/mL
same,MIC50,Aspergillus wentii,1 µg/mL
same,MIC90,Aspergillus wentii,2 µg/mL
same,MIC,Fusarium oxysporum,1 µg/mL
same,MIC50,Fusarium oxysporum,1 µg/mL
same,MIC90,Fusarium oxysporum,2 µg/mL
same,MIC,Aspergillus nidulans,1 µg/mL
same,MIC50,Aspergillus nidulans,1 µg/mL
same,MIC90,Aspergillus nidulans,2 µg/mL
same,MIC50,[1],1 µg/mL
same,MIC90,[1],2 µg/mL
same,MIC50,[2],1 µg/mL
same,MIC90,[2],2 µg/mL
same,MIC,Aspergillus flavus,2 µg/mL
same,MIC50,Aspergillus flavus,2 µg/mL
same,MIC90,Aspergillus flavus,2 µg/mL
CN(C/C=C/C#CC(C)(C)C)Cc1cccc2ccccc12 [TERBINAFINE],MIC90,Fusarium sp.; [3],8 µg/mL
OC(Cn1cncn1)(Cn1cncn1)c1ccc(F)cc1F [FLUCONAZOLE],MIC90,Fusarium sp.; [3],> 256 µg/mL
C[C@@H]1C/C=C/C=C/C=C/C=C/[C@H](O[C@@H]2O[C@H](C)[C@@H](O)[C@H](N)[C@@H]2O)C[C@@H]2O[C@](O)(C[C@@H](O)C[C@H]3O[C@@H]3/C=C/C(=O)O1)C[C@H](O)[C@H]2C(=O)O [NATAMYCIN],MIC,Fusarium solani,4 µg/mL
same,MIC50,Fusarium solani,4 µg/mL
same,MIC90,Fusarium solani,8 µg/mL
same,MIC,Aspergillus oryzae,32 µg/mL
same,MIC50,Aspergillus oryzae,32 µg/mL
same,MIC90,Aspergillus oryzae,32 µg/mL
same,MIC,Aspergillus fumigatus,4 µg/mL
same,MIC50,Aspergillus fumigatus,4 µg/mL
same,MIC90,Aspergillus fumigatus,4 µg/mL
same,MIC90,Fusarium sp.,16 µg/mL
same,MIC,"Fusarium sp.; Fusarium sp., 48 h",4 µg/mL
same,MIC50,"Fusarium sp.; Fusarium sp., 48 h",4 µg/mL
same,MIC90,Fusarium sp.; [3],8 µg/mL
same,MIC,Fusarium avenaceum,8 µg/mL
same,MIC50,Fusarium avenaceum,8 µg/mL
same,MIC90,Fusarium avenaceum,8 µg/mL
same,MIC,Aspergillus candidus,4 µg/mL
same,MIC50,Aspergillus candidus,4 µg/mL
same,MIC90,Aspergillus candidus,32 µg/mL
same,MIC,Aspergillus sp.,32 µg/mL
same,MIC50,Aspergillus sp.,32 µg/mL
same,MIC90,Aspergillus sp.,32 µg/mL
same,MIC,Aspergillus versicolor,8 µg/mL
same,MIC50,Aspergillus versicolor,8 µg/mL
same,MIC90,Aspergillus versicolor,32 µg/mL
same,MIC,Aspergillus niger,4 µg/mL
same,MIC50,Aspergillus niger,4 µg/mL
same,MIC90,Aspergillus niger,32 µg/mL
same,MIC,Aspergillus ochraceus,4 µg/mL
same,MIC50,Aspergillus ochraceus,4 µg/mL
same,MIC90,Aspergillus ochraceus,32 µg/mL
same,MIC,Alternaria alternata,4 µg/mL
same,MIC50,Alternaria alternata,4 µg/mL
same,MIC90,Alternaria alternata,4 µg/mL
same,MIC,Fusarium verticillioides,4 µg/mL
same,MIC50,Fusarium verticillioides,4 µg/mL
same,MIC90,Fusarium verticillioides,8 µg/mL
same,MIC,Aspergillus wentii,4 µg/mL
same,MIC50,Aspergillus wentii,4 µg/mL
same,MIC90,Aspergillus wentii,32 µg/mL
same,MIC,Fusarium oxysporum,4 µg/mL
same,MIC50,Fusarium oxysporum,4 µg/mL
same,MIC90,Fusarium oxysporum,8 µg/mL
same,MIC,Aspergillus nidulans,4 µg/mL
same,MIC50,Aspergillus nidulans,4 µg/mL
same,MIC90,Aspergillus nidulans,32 µg/mL
same,MIC50,[1],4 µg/mL
same,MIC90,[1],8 µg/mL
same,MIC50,[2],4 µg/mL
same,MIC90,[2],8 µg/mL
same,MIC,Aspergillus flavus,32 µg/mL
same,MIC50,Aspergillus flavus,32 µg/mL
same,MIC90,Aspergillus flavus,32 µg/mL
CCC(C)n1ncn(-c2ccc(N3CCN(c4ccc(OCC5COC(Cn6cncn6)(c6ccc(Cl)cc6Cl)O5)cc4)CC3)cc2)c1=O (stereo not given) [ITRACONAZOLE],MIC90,Fusarium sp.; [3],> 16 µg/mL
